Experimental data: patent publication US20260234112A1, “COMPOUNDS, COMPOSITIONS, AND METHODS OF USE THEREOF” (Type6 Therapeutics, Inc., priority 2023, published 2026)

What follows are compounds tested against T1, Cdk2(2-298) (Homo sapiens, UniProt P24941) (assay: Surface Plasmon Resonance (SPR) compound interaction, Biacore 8K). Conditions: single-cycle kinetics (SCK, "S"), dissociation 1800 sec, read-out: Activity rating (KD).
T1 construct: Biotinylated N-terminal avi-tagged Cdk2(2-298) or Cdk1(1-297) was immobilized
Format: binding
Experimental: Compound interaction was profiled using a Biacore 8K instrument (Cytiva). Biotinylated N-terminal avi-tagged Cdk2(2-298) or Cdk1(1-297) was immobilized on a series S sensor Chip SA at a capture level between 2500 RU and 3000 RU (Cdk2) or 7000 RU (Cdk1) in buffer (25 mM HEPES, 150 mM NaCl, 0.05% Tween20, pH 7.5). A compound dilution plate (8 concentrations, 3-fold dilution) in DMSO was prepared (100× assay concentration). From this plate, compound DMSO stock solution was transferred into buffer, yielding a final DMSO concentration of 1% in assay. The remaining buffer was supplemented with 1% DMSO. Compounds were injected in a series of increasing concentrations in multi-cycle kinetics (MCK, “M”) or single-cycle kinetics (SCK, “S”) mode at a flow rate of 30 μl/min for 120 sec and dissociation was profiled for 180 sec (MCK) or 1800 sec (SCK). Data were analysed using Biacore Insight Evaluation Software (Cytiva).

SMILES	Kd [nM]
N[C@H]1CC[C@H](Nc2nccc(-c3cnccc3Oc3ccc(NS(=O)(=O)C4CCCCC4)cc3F)n2)CC1 [Compound 68, N-[4-[[3-[2-[(1r,4r)(4-Aminocyclohexyl)amino]pyrimidin-4-yl]-4-pyridyl]oxy]-3-fluorophenyl] cyclohexylsulfonamide]	100 to 1000
O=S(=O)(Nc1ccc(Oc2ccncc2-c2ccnc(N[C@H]3CCCNC3)n2)c(F)c1)c1cccc2ccccc12 [Compound 70, N-[3-Fluoro-4-[[3-[2-[[(3S)-3-piperidyl]amino]pyrimidin-4-yl]-4-pyridyl]oxy]phenyl] naphthalene-1-sulfonamide]	≤ 10
N[C@H]1CC[C@H](Nc2nccc(-c3cnccc3Oc3ccc(NS(=O)(=O)c4ccccc4-c4ccccc4)cc3F)n2)CC1 [Compound 72, N-[4-[[3-[2-(1r,4r)[(4-Aminocyclohexyl)amino]pyrimidin-4-yl]-4-pyridyl]oxy]-3-fluorophenyl] 2-phenylbenzenesulfonamide]	11 to 100
N[C@H]1CC[C@H](Nc2nccc(-c3cnccc3Oc3ccc(NS(=O)(=O)C45CC6CC(CC(C6)C4)C5)cc3F)n2)CC1 [Compound 74, N-[4-[[3-[2-(1r,4r)[(4-Aminocyclohexyl)amino]pyrimidin-4-yl]-4-pyridyl]oxy]-3-fluorophenyl] adamant-1-ylsulfonamide]	> 5000
N[C@H]1CC[C@H](Nc2nccc(-c3cnccc3Oc3ccc(NS(=O)(=O)C4CC5CCC4C5)cc3F)n2)CC1 (stereo partly drawn) [Compound 75, N-[4-[[3-[2-(1r,4r)[(4-Aminocyclohexyl)amino]pyrimidin-4-yl]-4-pyridyl]oxy]-3-fluorophenyl] [R,S]-exo-norborn-2-ylsulfonamide]	100 to 1000
CN(C)[C@H]1CC[C@H](Nc2nccc(-c3cnccc3Oc3ccc(NC(=O)c4ccccc4Cl)cc3F)n2)CC1 [Compound 76, N-[4-[[3-[2-[(1r,4r)(4-(N,N-Dimethylamino)cyclohexyl)amino]pyrimidin-4-yl]-4-pyridyl]oxy]-3-fluorophenyl] 2-chlorobenzamide]	100 to 1000
CN1CCC(Nc2nccc(-c3cnccc3Oc3ccc(NS(=O)(=O)c4ccccc4Cl)cc3F)n2)CC1 [Compound 77, N-[3-Fluoro-4-[[3-[2-[[N-methylpiperid-4-yl]amino]pyrimidin-4-yl]-4-pyridyl]oxy]phenyl] 2-chlorobenzenesulfonamide]	11 to 100
CN(C)[C@H]1CC[C@H](Nc2nccc(-c3cnccc3Oc3ccc(NS(=O)(=O)c4ccccc4Cl)cc3F)n2)CC1 [Compound 78, N-[4-[[3-[2-[(1r,4r)(4-(N,N-Dimethylamino)cyclohexyl)amino]pyrimidin-4-yl]-4-pyridyl]oxy]-3-fluorophenyl] 2-chlorobenzenesulfonamide]	11 to 100
N[C@H]1CC[C@H](Nc2nccc(-c3cnccc3Oc3ccc(NS(=O)(=O)c4ccc(CO)cc4F)cc3F)n2)CC1 [Compound 81]	100 to 1000
N[C@H]1CC[C@H](Nc2nccc(-c3cnccc3Oc3ccc(NS(=O)(=O)c4ccc(CCO)cc4F)cc3F)n2)CC1 [Compound 83, N-[4-[[3-[2-(1r,4r)[(4-Aminocyclohexyl)amino]pyrimidin-4-yl]-4-pyridyl]oxy]-3-fluorophenyl] 2-fluoro-4-(2-hydroxyethyl)benzenesulfonamide]	100 to 1000

Further lines, results first:

Kd [nM]	SMILES
100 to 1000	N[C@H]1CC[C@H](Nc2nccc(-c3cnccc3Oc3ccc(NS(=O)(=O)c4ccccc4)c(Cl)c3)n2)CC1 [Compound 61, N-[4-[[3-[2-[(1r,4r)(4-Aminocyclohexyl)amino]pyrimidin-4-yl]-4-pyridyl]oxy]-2-chiorophenyl] benzenesulfonamide]
100 to 1000	N[C@H]1CC[C@H](Nc2nccc(-c3cnccc3Oc3ccc(NS(=O)(=O)c4ccccc4)c(Br)c3)n2)CC1 [Compound 62, N-[4-[[3-[2-[(1r,4r)(4-Aminocyclohexyl)amino]pyrimidin-4-yl]-4-pyridyl]oxy]-2-bromophenyl] benzenesulfonamide]
1000 to 5000	N[C@H]1CC[C@H](Nc2nccc(-c3cnccc3Oc3cc(Cl)c(NS(=O)(=O)c4ccccc4)c(Cl)c3)n2)CC1 [Compound 63, N-[4-[[3-[2-[(1r,4r)(4-Aminocyclohexyl)amino]pyrimidin-4-yl]-4-pyridyl]oxy]-2,6-dichlorophenyl] benzenesulfonamide]
≤ 10	N[C@H]1CC[C@H](Nc2nccc(-c3cnccc3Oc3ccc(NS(=O)(=O)c4ccccc4F)cc3F)n2)CC1 [Compound 64, N-[4-[[3-[2-[(1r,4r)(4-Aminocyclohexyl)amino]pyrimidin-4-yl]-4-pyridyl]oxy]-3-fluorophenyl] 2-fluorobenzenesulfonamide]
≤ 10	N[C@H]1CC[C@H](Nc2nccc(-c3cnccc3Oc3ccc(NS(=O)(=O)c4ccccc4I)cc3F)n2)CC1 [Compound 65, N-[4-[[3-[2-[(1r,4r)(4-Aminocyclohexyl)amino]pyrimidin-4-yl]-4-pyridyl]oxy]-3-fluorophenyl] 2-iodobenzenesulfonamide]
100 to 1000	CC(C)(C)c1ccccc1S(=O)(=O)Nc1ccc(Oc2ccncc2-c2ccnc(N[C@H]3CC[C@H](N)CC3)n2)c(F)c1 [Compound 66, N-[4-[[3-[2-[(1r,4r)(4-Aminocyclohexyl)amino]pyrimidin-4-yl]-4-pyridyl]oxy]-3-fluorophenyl] 2-tert-butylbenzenesulfonamide]
≤ 10	N#Cc1ccccc1S(=O)(=O)Nc1ccc(Oc2ccncc2-c2ccnc(N[C@H]3CC[C@H](N)CC3)n2)c(F)c1 [Compound 67, N-[4-[[3-[2-[(1r,4r)(4-Aminocyclohexyl)amino]pyrimidin-4-yl]-4-pyridyl]oxy]-3-fluorophenyl] 2-cyanobenzenesulfonamide]
11 to 100	N[C@H]1CC[C@H](Nc2nccc(-c3cnccc3Oc3ccc(NS(=O)(=O)c4cccc5ccccc45)cc3F)n2)CC1 [Compound 69, N-[4-[[3-[2-[(1r,4r)(4-Aminocyclohexyl)amino]pyrimidin-4-yl]-4-pyridyl]oxy]-3-fluorophenyl] naphthalene-1-sulfonamide]
≤ 10	CCc1ccccc1S(=O)(=O)Nc1ccc(Oc2ccncc2-c2ccnc(N[C@H]3CC[C@H](N)CC3)n2)c(F)c1 [Compound 71, N-[4-[[3-[2-(1r,4r)[(4-Aminocyclohexyl)amino]pyrimidin-4-yl]-4-pyridyl]oxy]-3-fluorophenyl] 2-ethylbenzenesulfonamide]
11 to 100	C#Cc1ccccc1S(=O)(=O)Nc1ccc(Oc2ccncc2-c2ccnc(N[C@H]3CC[C@H](N)CC3)n2)c(F)c1 [Compound 73, N-[4-[[3-[2-(1r,4r)[(4-Aminocyclohexyl)amino]pyrimidin-4-yl]-4-pyridyl]oxy]-3-fluorophenyl] 2-ethynylbenzenesulfonamide]
≤ 10	N[C@H]1CC[C@H](Nc2nccc(-c3cnccc3Oc3ccc(NS(=O)(=O)c4ccccc4Cl)c(F)c3)n2)CC1 [Compound 79, N-[4-[[3-[2-[(1r,4r)(4-Aminocyclohexyl)amino]pyrimidin-4-yl]-4-pyridyl]oxy]-2-fluorophenyl] 2-chlorobenzenesulfonamide]
100 to 1000	N[C@H]1CC[C@H](Nc2nccc(-c3cnccc3Oc3ccc(NS(=O)(=O)c4ccc(CO)cc4F)c(F)c3)n2)CC1 [Compound 82, N-82[4-[[3-[2-(1r,4r)[(4-Aminocyclohexyl)amino]pyrimidin-4-yl]-4-pyridyl]oxy]-2-fluorophenyl] 2-fluoro-4-(hydroxymethyl)benzenesulfonamide]
